Patent US10724100B2, “Systems and methods for treating patients having a genetic predisposition to develop prostate cancer” (Institute for Cancer Research, priority 2015, dated 2020)

System: peripheral blood lymphocytes (PBLs) of prostate cancer patients and matched controls
Experiment: γH2AX foci immunofluorescence in PHA/IL-2-stimulated peripheral blood lymphocytes after DNA damaging agents
Type: cell-based, human
Conditions: PBLs from 9 patients and 10 age- and gender-matched controls; 10 μM aphidicolin or 25 μM etoposide; fixed 2 hours later; p=0.0337 (aphidicolin), p=0.007 (etoposide)
Experimental: Peripheral blood lymphocytes (PBLs) were available from 9/12 of the exome sequenced patients and 10 age-matched and gender-matched individuals without a cancer diagnosis or a family history of cancer. […] For analysis of DDR, cells were cultured in RPMI-1640 containing 15% fetal bovine serum (HyClone Laboratories, Logan, Utah), 2 mM L-glutamine (Life Technologies, Grand Island, N.Y.), 50 μM 2-mercaptoethanol (Sigma-Aldrich, St. Louis, Mo.), 0.2 units human recombinant insulin (Sigma) per ml, 50 units penicillin and 50 mg streptomycin per ml (complete RPMI), and then stimulated with phytohemagglutinin (PHA)-M (Life Technologies, Grand Island, N.Y.) and recombinant human interleukin 2 (IL-2) (NCI Preclinical Repository) for 72 hours. […] For immunofluorescence, cells were allowed to attach to poly-d-lysine-coated 96-well plates, stained with anti-γH2AX antibody (#05-636, Millipore, Temecula, Calif.). Sixteen images per well were acquired at 20× (with each image acquired in 2 channels to detect γH2AX with TRITC and total DNA with DAPI) utilizing the ImageXpress micro automated microscope (Molecular Devices, Sunnyvale, Calif.) driven by MetaXpress software. […]

In the case of `C[C@@]1(CO)[C@H](O)CC[C@@]2(C)[C@H]1CC[C@H]1C[C@@H]3C[C@@]12CC[C@]3(O)CO` [aphidicolin], the “γH2AX induction (nuclear γH2AX foci per cell), cases versus controls” value is reported as “higher magnitude of induction seen in prostate cancer patients”.
